These results are taken from patent US10183079B2, “Hydrogel microspheres containing peptide ligands for growth factor regulation in blood products” (Wisconsin Alumni Research Foundation, priority 2016, dated 2019).

Assay [1] relates to choroidal neovascularization. Briefly: Mouse choroidal neovascularization model. Type of assay: in vivo. Conditions: 2 μL/eye. The procedure: Microspheres (generated via sonication) were sanitized either by washing in 70% ethanol or by exposing to UV for 30 minutes prior to injection. Microspheres (F-VBP, F-Scramble, N-VBP, and N-Scramble) were suspended at 2 mg/mL in sterile PBS on the day of experiments. Soluble VBP or Scramble peptide (purchased from GenScript) were dissolved, sterile filtered through 0.2 μm filter, and diluted to 20 μg/mL in sterile PBS before experiments. SU4312 (Sigma) was dissolved in DMSO at 5 μg/mL, and Eylea (Regeneron Pharmaceuticals) was dissolved in PBS at 40 μg/mL and sterile filtered through 0.2 μm filter.
The mouse choroidal neovascularization model was generated as described in FIG. 8A. Briefly, C57BL/6J mice (Jackson Laboratories; 6-weeks old female) eyes were dilated using a drop of tropicamide (1%), and mice were anesthetized with ketamine and xylazine. Mice were subjected to photocoagulation (75 μm spot size, 0.1 s duration, 120 mW) at the 3-, 9-, and 12-o'clock positions of the posterior pole of the eye using an OcuLight GL diode laser (Iridex) with a glass coverslip over the eye. Microspheres were injected into each eye (2 μL/eye) using a pump microinjection apparatus (Harvard Apparatus) or Hamilton syringe. […] The area of ICAM-2+ staining (defined as mean CNV area) at each position (3-, 9-, and 12-o'clock) was quantified using Fiji and automated image thresholding. […]

The next assay deals with iPSC-EC. Briefly: iPSC-EC proliferation, xCELLigence cell index. The assay is classed as cell-based. The following applies: 5 ng/mL VEGF, 48-hour culture; for iPSC-EC proliferation (cell index): soluble peptide. The procedure:
Soluble branched VBP containing a PEG-27 spacer (C{βA}K({βA}{PEG-27}KSAPYEWNFDI{Ld}{Yd}{Ad}{Fd}E)2 (SEQ ID NO:10) was synthesized as described above using fmoc solid-phase peptide synthesis, wherein each amino acid after the branch point was added at 8 molar excess relative to the resin free amines with a corresponding 8 molar excess of DIPEA and 4 molar excess of HBTU during the coupling reaction. Peptide purity was assessed using reverse-phase high performance liquid chromatograph, and peptide identity was assessed using matrix-assisted laser desorption time-of-flight spectrometry. Peptide content was assessed using Ellman's assay for free thiol, and both soluble branched VBP2, PEG-27 and VBP2,a were dissolved in PBS for use in cell culture assay. The influence of soluble branched peptides on iPSC-EC proliferation was established using ACEA xCELLigence RTCA-DP. iPSC-EC used in this Example were cultured in iCell-EC Growth Medium (as described in Example 1 above), were passaged using TrypLE, and were used between passage 4-8 for experiments. E-plates (containing gold electrodes on the bottom of each well) were first coated with Fibronectin (Corning) and were seeded with iPSC-EC at a density of 6000 cells/cm^2. Seeded E-plates were cultured on RTCA-DP overnight in Growth Medium, and on the day of experiments, medium was removed and replaced with medium containing 0.1 vol % supplement (CDI) in VascuLife (LifeLine) and L-glutamine (LifeLine) and containing 5 ng/mL VEGF (LifeLine) and the specified concentrations of either VBP2, PEG-27 or VBP2,a. iPSC-EC proliferation was assessed by monitoring the cell index (indicating cell coverage over the gold-coated wells) over a 48-hour period in culture, and at the end of the 48-hour culture, cell indices were averaged for two replicate wells per condition. Statistical analysis at the end of the experiment was performed using two-way analysis of variance (ANOVA) and Tukey's post-hoc test for α=0.05.

Square brackets hold non-standard residues; d marks the D form. Primed or numbered codes have the meaning given here. Ends that are not written are not given here. PEG27′ = polyethylene glycol 27 spacer; βAla = NCCC(=O)O

Take `Cc1cc(C)c(/C=C2\C(=O)Nc3ccccc32)[nH]1` [SU5416]: the “mean CNV area, small-molecule inhibitor” value in assay [1] (5 μg/mL in DMSO, vehicle control) is “inhibit angiogenesis in this model”.

Regarding “(E{Fd}{Ad}{Yd}{Ld}IDFNWEYPASK)2KC (E[dF][dA][dY][dL]IDFNWEYPASKE[dF][dA][dY][dL]IDFNWEYPASKKC-NH2; also: branched dimer: two arms on K33) [VBP2,a]”, the “iPSC-EC proliferation (cell index) at 5 μM” value with iPSC-EC (5 μM soluble peptide) is “inhibited proliferation at a much greater extent than the VBP2, PEG27”. For the same molecule, the “iPSC-EC proliferation (cell index)” value in the assay with iPSC-EC was “inhibited iPSC-EC proliferation in culture with VEGF”.

On to “C{βA}K({βA}{PEG-27}KSAPYEWNFDI{Ld}{Yd}{Ad}{Fd}E)2 (C[βAla]K[βAla][PEG27′]KSAPYEWNFDI[dL][dY][dA][dF]E[βAla][PEG27′]KSAPYEWNFDI[dL][dY][dA][dF]E; not fully specified (C-terminus); numbers in words are those of the source; also: branched dimer: two arms on K3) [VBP2, PEG27]”, for which, in the assay with iPSC-EC, the “iPSC-EC proliferation (cell index)” value was “inhibited iPSC-EC proliferation in culture with VEGF”.

With “Eylea: commercial anti-angiogenesis compound (Regeneron Pharmaceuticals), soluble VEGF inhibitor protein”, in assay [1] (40 μg/mL, control IgG), the “mean CNV area, Eylea” value is reported as “inhibit angiogenesis in this model”.
